Tested on: STZ-induced diabetic mice
Assay: Oral glucose tolerance test in STZ-induced diabetic mice
Format: in vivo
Settings: 30 mg/kg of bw, glucose 2 g/kg of bw, vs vehicle-treated group (p < 0.05)
Experimental: The target compounds 11, 17, and 35 (30 mg/kg of bw) and control drugs (glibenclamide 10 mg/kg of bw) were dissolved in the vehicle (Tween-80, NaCl 0.9%). Glucose (2 g/kg of bw) was used for the glucose tolerance tests. The control mice group received only the vehicle. All cases were treated orally. Blood samples were collected from caudal vein by means of a small incision in the end of the tail. Blood glucose levels were estimated by a commercial glucometer (Bayer Contour TS). For the anti-hyperglycemic tests, blood samples were obtained 0.5, 1, 1.5, 2, and 3 h after the glucose load. Percentage variation of glycemia for each group was calculated with respect to initial (0 h) level according to: % Variation of glycemia=[(Gi−Gt)/Gi]×100% where Gi is initial glycemia values and Gt is the glycemia value after samples administration. For the anti-hyperglycemic tests, data were represented as % variation of glycemia versus time. Studies were performed in normoglycemic and STZ-induced diabetic mice.

Compound	postprandial glycemia peak in oral glucose tolerance test
O=c1oc2ccc(O)cc2cc1-c1ccc(O)cc1 [Compound 17, 6-Hydroxy-3-(4-hydroxyphenyl)-coumarin]	caused significant decrease in the postprandial glycemia peak
COc1ccc(-c2cc3c(O)cc(O)cc3oc2=O)cc1 [Compound 35, 5,7-Dihydroxy-3-(4-methoxyphenyl)-coumarin]	caused significant decrease in the postprandial glycemia peak

Reference: article PMC6211316, “Synthesis and biological evaluation of 3-arylcoumarin derivatives as potential anti-diabetic agents” (Journal of Enzyme Inhibition and Medicinal Chemistry, 2018)
